Data from patent US12649750B2, “Macrocyclic compounds, compositions, and methods of using thereof” (Sionna Therapeutics Inc., priority 2022, dated 2026).

What was measured:
[1] = biological target: T1, CFTR (Homo sapiens, UniProt P13569, DEL508-508); experiment: TECC24 AUC fold over DMSO @10 μM, CFTR-mediated transepithelial chloride transport in CF-HBE cells; type: cell-based; conditions: test agent AUC divided by DMSO vehicle AUC, primary CF-HBE cells, ΔF508 homozygous donor, 48 hours incubation
T1 construct: Primary human bronchial epithelial cells from a ΔF508 homozygous CF donor; host or cells: primary human bronchial epithelial cells (CF-HBE), ΔF508 homozygous donor
T1 sequence (P13569 with tags, fused parts or gaps DEL508-508): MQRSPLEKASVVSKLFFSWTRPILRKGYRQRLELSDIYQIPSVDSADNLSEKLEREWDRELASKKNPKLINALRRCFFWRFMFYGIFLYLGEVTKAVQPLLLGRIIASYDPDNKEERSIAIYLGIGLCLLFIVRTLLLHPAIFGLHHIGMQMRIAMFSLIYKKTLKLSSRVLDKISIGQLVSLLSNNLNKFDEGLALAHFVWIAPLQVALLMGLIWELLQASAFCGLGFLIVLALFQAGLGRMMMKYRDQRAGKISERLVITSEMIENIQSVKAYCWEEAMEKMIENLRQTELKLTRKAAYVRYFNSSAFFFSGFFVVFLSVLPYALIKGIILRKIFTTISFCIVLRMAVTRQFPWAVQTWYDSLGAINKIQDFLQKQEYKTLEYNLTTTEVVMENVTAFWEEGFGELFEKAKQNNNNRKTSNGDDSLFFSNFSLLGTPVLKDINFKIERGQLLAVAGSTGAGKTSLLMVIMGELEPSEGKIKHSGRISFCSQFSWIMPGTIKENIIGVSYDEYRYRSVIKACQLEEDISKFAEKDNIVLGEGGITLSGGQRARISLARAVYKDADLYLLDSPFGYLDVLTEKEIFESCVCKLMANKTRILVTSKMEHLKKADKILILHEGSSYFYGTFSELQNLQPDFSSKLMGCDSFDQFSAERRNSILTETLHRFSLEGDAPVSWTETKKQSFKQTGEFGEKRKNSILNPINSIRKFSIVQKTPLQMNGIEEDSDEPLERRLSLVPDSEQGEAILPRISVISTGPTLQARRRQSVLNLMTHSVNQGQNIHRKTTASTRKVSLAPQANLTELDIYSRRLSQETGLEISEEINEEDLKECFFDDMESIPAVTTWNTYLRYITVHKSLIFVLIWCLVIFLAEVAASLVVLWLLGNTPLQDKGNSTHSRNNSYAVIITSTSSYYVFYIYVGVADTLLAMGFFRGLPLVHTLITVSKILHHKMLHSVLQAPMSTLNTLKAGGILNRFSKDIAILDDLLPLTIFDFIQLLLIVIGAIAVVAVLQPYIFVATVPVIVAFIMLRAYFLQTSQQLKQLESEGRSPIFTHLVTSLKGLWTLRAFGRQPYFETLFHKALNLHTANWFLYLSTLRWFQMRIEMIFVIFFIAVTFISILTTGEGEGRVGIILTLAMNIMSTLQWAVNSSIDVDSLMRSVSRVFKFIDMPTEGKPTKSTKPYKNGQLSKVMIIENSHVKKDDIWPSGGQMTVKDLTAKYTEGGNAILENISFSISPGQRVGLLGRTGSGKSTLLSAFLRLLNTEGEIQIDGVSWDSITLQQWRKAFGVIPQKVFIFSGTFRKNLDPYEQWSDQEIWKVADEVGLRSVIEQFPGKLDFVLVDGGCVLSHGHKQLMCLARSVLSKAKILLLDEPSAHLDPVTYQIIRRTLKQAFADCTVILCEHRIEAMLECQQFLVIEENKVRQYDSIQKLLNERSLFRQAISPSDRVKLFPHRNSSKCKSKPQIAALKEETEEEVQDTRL
How it was run: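 Value is ratio of test-agent to DMSO AUC of equivalent transepithelial Cl− current, integrated from forskolin (10 μM) stimulation to CFTR inhibitor-172 (20 μM) block, with benzamil 10 μM present. CF-HBE (ΔF508/ΔF508) cultures had 48 h compound exposure at 10 μM, 36.5° C before recording.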

[2] = biological target: T2, NBD1 (Homo sapiens, UniProt P13569); experiment: Aggregation analysis using differential static light scattering (DSLS), thermal stability of NBD1 (ΔTagg); type: binding; conditions: ΔTagg versus DMSO control, NBD1 0.2 mg/ml
T2 construct: Purified recombinant NBD1 was produced using previously described methods; made in house
T2 sequence (P13569 423-646 limits assumed): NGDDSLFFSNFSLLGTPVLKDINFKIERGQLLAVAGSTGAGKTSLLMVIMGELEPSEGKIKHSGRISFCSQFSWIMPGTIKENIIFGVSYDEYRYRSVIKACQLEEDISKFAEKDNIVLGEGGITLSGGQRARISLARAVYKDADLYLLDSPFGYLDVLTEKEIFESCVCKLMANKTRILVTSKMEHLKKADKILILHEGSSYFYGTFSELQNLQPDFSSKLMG
How it was run: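 Stabilisation is measured as the shift in aggregation onset of recombinant NBD1 (0.2 mg/ml, 2 mM ATP, 5 mM MgCl2, pH7.6) exposed to compound. Images are taken every 0.5° C. while heating at 1° C. per minute, and the inflection-point Tagg is corrected by the DMSO mean.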

Structure (SMILES)	TECC (AUC, 10 μM) [1]	DSLS 3D (100 μM ΔT) [2]
Cn1nc2nc1-c1cc(ccc1F)[S+]([O-])c1c(F)cc3[nH]ccc3c1CCS(=O)(=O)CC(C)(C)CCC[C@]2(C)c1cccc([C@@H](O)CO)c1 (single isomer, unassigned) [Compound 236A]	A (a TECC value less than 12 is marked “A”)	B (a value above 5 °C and less than or equal to 10 °C is marked “B”)
Cn1nc2nc1-c1cc(ccc1F)[S+]([O-])c1c(F)cc3[nH]ccc3c1CCS(=O)(=O)CC(C)(C)CCC[C@]2(C)c1cccc([C@@H](O)CO)c1 (single isomer, unassigned) [Compound 236B]	C (a value between 20 and 80 is marked “C”)	C (a value greater than 10 °C and less than or equal to 25 °C is marked “C”)
C[C@H](O)Cc1cccc([C@@]2(C)CCCC(C)(C)CS(=O)(=O)CCc3c(c(F)cc4[nH]ccc34)[S+]([O-])c3ccc(F)c(c3)-c3nc2nn3C)c1 (single isomer, unassigned) [Compound 237A]	C (a value between 20 and 80 is marked “C”)	A (an ΔTagg value less than or equal to 5 °C is marked “A”)
C[C@H](O)Cc1cccc([C@@]2(C)CCCC(C)(C)CS(=O)(=O)CCc3c(c(F)cc4[nH]ccc34)[S+]([O-])c3ccc(F)c(c3)-c3nc2nn3C)c1 (single isomer, unassigned) [Compound 237B]	C (a value between 20 and 80 is marked “C”)	C (a value greater than 10 °C and less than or equal to 25 °C is marked “C”)
C[C@@H](Cc1cccc([C@@]2(C)CCCC(C)(C)CS(=O)(=O)CCc3c(c(F)cc4[nH]ccc34)[S+]([O-])c3ccnc(c3)-c3nc2cs3)c1)C(=O)O (single isomer, unassigned) [Compound 239A]	B (a value between 12-20 is marked “B”)	A (an ΔTagg value less than or equal to 5 °C is marked “A”)
C[C@@H](Cc1cccc([C@@]2(C)CCCC(C)(C)CS(=O)(=O)CCc3c(c(F)cc4[nH]ccc34)[S+]([O-])c3ccnc(c3)-c3nc2cs3)c1)C(=O)O (single isomer, unassigned) [Compound 239B]	A (a TECC value less than 12 is marked “A”)	A (an ΔTagg value less than or equal to 5 °C is marked “A”)
C[C@@H](Cc1cccc([C@@]2(C)CCCC(C)(C)CS(=O)(=O)CCc3c(c(F)cc4[nH]ccc34)[S+]([O-])c3ccc(F)c(c3)-c3nc2cs3)c1)C(=O)O (single isomer, unassigned) [Compound 241A]	C (a value between 20 and 80 is marked “C”)	A (an ΔTagg value less than or equal to 5 °C is marked “A”)
C[C@@H](Cc1cccc([C@@]2(C)CCCC(C)(C)CS(=O)(=O)CCc3c(c(F)cc4[nH]ccc34)[S+]([O-])c3ccc(F)c(c3)-c3nc2cs3)c1)C(=O)O (single isomer, unassigned) [Compound 241B]	A (a TECC value less than 12 is marked “A”)	A (an ΔTagg value less than or equal to 5 °C is marked “A”)
Cn1nc2nc1-c1cc(ccn1)[S+]([O-])c1c(F)cc3[nH]ccc3c1CCS(=O)(=O)CC(C)(C)CCC[C@]2(C)c1cccc(CCS(C)(=O)=O)c1 (single isomer, unassigned) [Compound 243A]	C (a value between 20 and 80 is marked “C”)	B (a value above 5 °C and less than or equal to 10 °C is marked “B”)
Cn1nc2nc1-c1cc(ccn1)[S+]([O-])c1c(F)cc3[nH]ccc3c1CCS(=O)(=O)CC(C)(C)CCC[C@]2(C)c1cccc(CCS(C)(=O)=O)c1 (single isomer, unassigned) [Compound 243B]	C (a value between 20 and 80 is marked “C”)	C (a value greater than 10 °C and less than or equal to 25 °C is marked “C”)
C[C@H](Cc1ccc(C2(C)CCCC(C)(C)CS(=O)(=O)CCc3c(c(F)cc4[nH]ccc34)Oc3ccnc(c3)-c3nc2nn3C)s1)C(=O)O (single isomer, unassigned) [Compound 246A]	B (a value between 12-20 is marked “B”)	C (a value greater than 10 °C and less than or equal to 25 °C is marked “C”)
C[C@H](Cc1ccc(C2(C)CCCC(C)(C)CS(=O)(=O)CCc3c(c(F)cc4[nH]ccc34)Oc3ccnc(c3)-c3nc2nn3C)s1)C(=O)O (single isomer, unassigned) [Compound 246B]	B (a value between 12-20 is marked “B”)	A (an ΔTagg value less than or equal to 5 °C is marked “A”)
C[C@@H](Cc1cccc([C@@]2(C)CCCC(C)(C)CS(=O)(=O)CCc3c(c(F)cc4[nH]ccc34)[S+]([O-])c3ccc(F)c(c3)-c3nc2co3)c1)C(=O)O (single isomer, unassigned) [Compound 248A]	C (a value between 20 and 80 is marked “C”)	C (a value greater than 10 °C and less than or equal to 25 °C is marked “C”)
C[C@@H](Cc1cccc([C@@]2(C)CCCC(C)(C)CS(=O)(=O)CCc3c(c(F)cc4[nH]ccc34)[S+]([O-])c3ccc(F)c(c3)-c3nc2co3)c1)C(=O)O (single isomer, unassigned) [Compound 248B]	A (a TECC value less than 12 is marked “A”)	C (a value greater than 10 °C and less than or equal to 25 °C is marked “C”)
Cn1nc2nc1-c1cc(ccn1)[S+]([O-])c1c(F)cc3[nH]ccc3c1CCS(=O)(=O)CC(C)(C)CCC[C@]2(C)c1cccc(CC(=O)O)c1 (single isomer, unassigned) [Compound 249A]	C (a value between 20 and 80 is marked “C”)	C (a value greater than 10 °C and less than or equal to 25 °C is marked “C”)
Cn1nc2nc1-c1cc(ccn1)[S+]([O-])c1c(F)cc3[nH]ccc3c1CCS(=O)(=O)CC(C)(C)CCC[C@]2(C)c1cccc(CC(=O)O)c1 (single isomer, unassigned) [Compound 249B]	B (a value between 12-20 is marked “B”)	C (a value greater than 10 °C and less than or equal to 25 °C is marked “C”)
Cn1nc2nc1-c1cc(ccn1)[S+]([O-])c1c(F)cc3[nH]ccc3c1CCS(=O)(=O)CC(C)(C)CCC[C@]2(C)c1cccc(CCO)c1 (single isomer, unassigned) [Compound 250]	C (a value between 20 and 80 is marked “C”)	C (a value greater than 10 °C and less than or equal to 25 °C is marked “C”)
C[C@@H](Cc1cccc([C@@]2(C)CCCC(C)(C)CS(=O)(=O)CCc3c(c(F)cc4[nH]ccc34)C(O)c3ccnc(c3)-c3nc2nn3C)c1)C(=O)O (single isomer, unassigned) [Compound 255A]	A (a TECC value less than 12 is marked “A”)	B (a value above 5 °C and less than or equal to 10 °C is marked “B”)
C[C@@H](Cc1cccc([C@@]2(C)CCCC(C)(C)CS(=O)(=O)CCc3c(c(F)cc4[nH]ccc34)C(O)c3ccnc(c3)-c3nc2nn3C)c1)C(=O)O (single isomer, unassigned) [Compound 255B]	C (a value between 20 and 80 is marked “C”)	C (a value greater than 10 °C and less than or equal to 25 °C is marked “C”)
Cn1nc2nc1-c1cc(ccn1)[S+]([O-])c1c(F)cc3[nH]ccc3c1CCS(=O)(=O)CC(C)(C)CCC[C@]2(C)c1cccc(CCC(=O)O)c1F (single isomer, unassigned) [Compound 260A]	C (a value between 20 and 80 is marked “C”)	C (a value greater than 10 °C and less than or equal to 25 °C is marked “C”)
Cn1nc2nc1-c1cc(ccn1)[S+]([O-])c1c(F)cc3[nH]ccc3c1CCS(=O)(=O)CC(C)(C)CCC[C@]2(C)c1cccc(CCC(=O)O)c1F (single isomer, unassigned) [Compound 260B]	A (a TECC value less than 12 is marked “A”)	B (a value above 5 °C and less than or equal to 10 °C is marked “B”)
C[C@@H](Cc1cccc(C2(C)CCCCCS(=O)(=O)CCc3c(c(F)cc4[nH]ccc34)Oc3ccnc(c3)-c3nc2nn3C)c1)C(=O)O (single isomer, unassigned) [Compound 261A]	C (a value between 20 and 80 is marked “C”)	C (a value greater than 10 °C and less than or equal to 25 °C is marked “C”)
C[C@@H](Cc1cccc(C2(C)CCCCCS(=O)(=O)CCc3c(c(F)cc4[nH]ccc34)Oc3ccnc(c3)-c3nc2nn3C)c1)C(=O)O (single isomer, unassigned) [Compound 261B]	A (a TECC value less than 12 is marked “A”)	A (an ΔTagg value less than or equal to 5 °C is marked “A”)
C[C@@H](O)Cc1cccc([C@@]2(C)CCCC(C)(C)CS(=O)(=O)CCc3c(c(F)cc4[nH]ccc34)[S+]([O-])c3ccc(F)c(c3)-c3nc2nn3C)c1 (single isomer, unassigned) [Compound 264]	C (a value between 20 and 80 is marked “C”)	C (a value greater than 10 °C and less than or equal to 25 °C is marked “C”)
C[C@@H](Cc1cccc(C2(C)CCCC(C)(C)CS(=O)(=O)CCc3c(c(F)cc4[nH]ccc34)Oc3ccnc(c3)-c3nc2nn3C)n1)C(=O)O (single isomer, unassigned) [Compound 266A]	A (a TECC value less than 12 is marked “A”)	A (an ΔTagg value less than or equal to 5 °C is marked “A”)
